The source made the active and inactive calls.
How the values were obtained:
Paired box protein Pax-8 = Paired box protein Pax-8 (Homo sapiens, UniProt Q06710); assay: inhibitors of PAX8-driven TPO luciferase reporter, dose response, RMG-I cells, cherry-pick (AID 687027); assay type: functional, cell-based;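 also: luciferase reporter driven by Pax8 target thyroperoxidase promoter measured by SteadyGlo luminescence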
[1] = PAX2 cell-based inhibition, dose response, selectivity assay for PAX8 inhibitor project, plate reader, dry powder samples (AID 743048); assay type: functional;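 also: HEK293 cells carrying a WT1 promoter luciferase reporter driven by expressed Pax2; potency is for inhibition of Pax2 driven reporter signal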
[2] = inhibitors of CMV-promoter luciferase reporter, dose response, counter-screen for Pax8 inhibitor project, cell-based, HEK293, luminescence, dry powder (AID 743020); assay type: functional
[3] = PAX5 activity inhibitors, dose response, selectivity assay for PAX8 inhibitor project, cell-based, plate reader, dry powder samples (AID 743047); assay type: functional;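 also: HEK293 cells carrying a Pax5 driven CD19 promoter luciferase reporter; potency of inhibitors that lower reporter luminescence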
[4] = HEK293T cytotoxicity, dose response, cytotoxicity control for miR-122 modulator project, cell-based, activator set, cherry-pick (AID 720690); assay type: functional;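 also: HEK293T human cells scored for general mammalian cytotoxicity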
[5] = cytotoxicity in COV434 cells, dose response, cytotoxicity control for PAX8 inhibitor project, cell-based, plate reader, dry powder, SA7 (AID 743145); assay type: functional
[6] = cytotoxicity in OV-90 ovarian cancer cells, dose response, PAX8 inhibitor project, cell-based, plate reader, dry powder, SA8 (AID 743149); assay type: functional
[7] = cytotoxicity in OVCAR8 ovarian cancer cells, dose response, PAX8 project, cell-based, plate reader, dry powder samples (AID 743197); assay type: functional; conditions: OVCAR-8
[8] = cytotoxicity dependent on PAX8, dose response, cell-based, plate reader, dry powder (AID 743049); assay type: functional
[9] = target: NAD-dependent protein deacylase sirtuin-5, mitochondrial (Homo sapiens, UniProt Q9NXA8); assay: SIRT5 deacylase inhibitors, dose response, biochemical, fluorescence imaging, cherry-pick, set 6 (AID 720597)
Sequence of NAD-dependent protein deacylase sirtuin-5, mitochondrial (Q9NXA8 whole entry): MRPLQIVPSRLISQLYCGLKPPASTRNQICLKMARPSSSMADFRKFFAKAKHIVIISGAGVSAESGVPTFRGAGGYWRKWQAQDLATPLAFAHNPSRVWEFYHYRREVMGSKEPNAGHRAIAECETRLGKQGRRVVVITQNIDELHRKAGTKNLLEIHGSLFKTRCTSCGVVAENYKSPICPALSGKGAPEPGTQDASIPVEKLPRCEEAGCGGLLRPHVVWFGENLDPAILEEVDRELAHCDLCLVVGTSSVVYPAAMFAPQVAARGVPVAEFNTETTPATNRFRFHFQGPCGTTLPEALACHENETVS

[10] = T. cruzi growth inhibition in host cells, dose response, cell-based, plate reader, dry powder, set 2 (AID 652275); assay type: functional
[11] = growth inhibition of intracellular T. cruzi, dose response, cell-based, plate reader, dry powder samples (AID 651845); assay type: functional
[12] = T. cruzi intracellular amastigote growth inhibition, dose response, imaging, CA-I/72 strain, bovine embryo skeletal muscle, dry powder (AID 651885); assay type: functional, cell-based
[13] = inhibitors of HIV Env-driven cell fusion, dose response, cherry-pick (AID 652057); assay type: functional, cell-based
[14] = CEM21 lymphoblast cell cytotoxicity, dose response, cytotoxicity control for viral fusion inhibitor project, CellTiter-Glo luminescence, cherry-picked (AID 652042); assay type: functional, cell-based;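 also: potency for signal decrease meaning cytotoxicity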
[15] = inhibitors of clade B AD8 Env fusion, dose response, cell-based, cherry-pick (AID 652062); assay type: functional;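 also: luciferase signal from cell-cell fusion driven by HIV-1 clade B AD8 Env; potency is for inhibitors of fusion seen as a drop in luminescence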
[16] = HIV Env cell-cell fusion inhibitors, dose response, HIV entry, plate reader, dry powder (AID 687023); assay type: functional, cell-based
[17] = P. falciparum Dd2 growth inhibitors, dose response, SYBR Green, cherry-picked samples (AID 1159567); assay type: functional, cell-based
[18] = HepG2 cell cytotoxicity, dose response, cytotoxicity control, cherry-picked samples (AID 1159577); assay type: functional, cell-based
Aminopeptidase N = target: T1, Aminopeptidase N (Plasmodium falciparum FcB1/Columbia, UniProt O96935); assay: P. falciparum M1AAP inhibitors, biochemical, fluorogenic H-Leu-NHMec substrate, 1536-well (AID 1445); design: species or system Plasmodium falciparum 3D7, 3D7
T1 sequence (O96935 whole entry): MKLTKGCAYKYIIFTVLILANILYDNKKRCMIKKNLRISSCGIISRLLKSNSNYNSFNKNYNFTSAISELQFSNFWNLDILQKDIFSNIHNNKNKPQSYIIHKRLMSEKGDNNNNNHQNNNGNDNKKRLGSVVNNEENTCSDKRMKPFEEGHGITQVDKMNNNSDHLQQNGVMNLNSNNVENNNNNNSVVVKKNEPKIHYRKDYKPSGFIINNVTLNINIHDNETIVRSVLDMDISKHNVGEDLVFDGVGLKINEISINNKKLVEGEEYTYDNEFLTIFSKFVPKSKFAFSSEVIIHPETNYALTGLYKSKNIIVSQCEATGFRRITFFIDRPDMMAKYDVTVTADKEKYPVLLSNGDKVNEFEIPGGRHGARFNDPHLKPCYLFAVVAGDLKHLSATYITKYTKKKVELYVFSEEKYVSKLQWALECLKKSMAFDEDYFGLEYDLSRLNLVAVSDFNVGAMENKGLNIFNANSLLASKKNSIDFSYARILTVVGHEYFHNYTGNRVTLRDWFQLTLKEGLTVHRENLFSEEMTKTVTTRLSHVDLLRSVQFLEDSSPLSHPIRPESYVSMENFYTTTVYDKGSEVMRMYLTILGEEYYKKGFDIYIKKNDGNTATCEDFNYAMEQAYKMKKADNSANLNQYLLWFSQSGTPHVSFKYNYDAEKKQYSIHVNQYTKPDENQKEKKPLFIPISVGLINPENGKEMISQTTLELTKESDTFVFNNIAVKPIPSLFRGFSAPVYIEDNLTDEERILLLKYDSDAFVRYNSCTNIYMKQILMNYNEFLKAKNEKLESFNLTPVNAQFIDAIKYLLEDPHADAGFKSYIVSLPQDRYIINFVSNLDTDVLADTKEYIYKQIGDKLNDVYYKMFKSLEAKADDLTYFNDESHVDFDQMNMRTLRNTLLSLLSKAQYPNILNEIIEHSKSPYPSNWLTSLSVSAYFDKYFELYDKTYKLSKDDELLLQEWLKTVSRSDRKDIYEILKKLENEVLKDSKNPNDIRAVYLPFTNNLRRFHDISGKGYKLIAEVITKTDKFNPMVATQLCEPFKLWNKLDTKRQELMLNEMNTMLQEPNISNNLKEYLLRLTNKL

[19] = Counterscreen for IDE inhibitors: Luminescence-based cell-based high throughput dose response assay to identify compounds that are cytotoxic to HEK cells. [Related pubchem assays: 434962 (Primary screen (IDE inhibitors in singlicate)), 449730 (Counterscreen (Cytotoxicity in triplicate)), 435028 (Confirmation (IDE inhibitors in triplicate)) …; assay type: functional; conditions: HEK293
[20] = target: Transitional endoplasmic reticulum ATPase (Homo sapiens, UniProt P55072, C522A); assay: C522A mutant p97 ATPase inhibitors, dose response, counter-screen for p97 inhibitor project, biochemical, luminescence (AID 1544)
Sequence of Transitional endoplasmic reticulum ATPase (Homo sapiens, UniProt P55072, C522A) (P55072 2-806 C522A limits assumed): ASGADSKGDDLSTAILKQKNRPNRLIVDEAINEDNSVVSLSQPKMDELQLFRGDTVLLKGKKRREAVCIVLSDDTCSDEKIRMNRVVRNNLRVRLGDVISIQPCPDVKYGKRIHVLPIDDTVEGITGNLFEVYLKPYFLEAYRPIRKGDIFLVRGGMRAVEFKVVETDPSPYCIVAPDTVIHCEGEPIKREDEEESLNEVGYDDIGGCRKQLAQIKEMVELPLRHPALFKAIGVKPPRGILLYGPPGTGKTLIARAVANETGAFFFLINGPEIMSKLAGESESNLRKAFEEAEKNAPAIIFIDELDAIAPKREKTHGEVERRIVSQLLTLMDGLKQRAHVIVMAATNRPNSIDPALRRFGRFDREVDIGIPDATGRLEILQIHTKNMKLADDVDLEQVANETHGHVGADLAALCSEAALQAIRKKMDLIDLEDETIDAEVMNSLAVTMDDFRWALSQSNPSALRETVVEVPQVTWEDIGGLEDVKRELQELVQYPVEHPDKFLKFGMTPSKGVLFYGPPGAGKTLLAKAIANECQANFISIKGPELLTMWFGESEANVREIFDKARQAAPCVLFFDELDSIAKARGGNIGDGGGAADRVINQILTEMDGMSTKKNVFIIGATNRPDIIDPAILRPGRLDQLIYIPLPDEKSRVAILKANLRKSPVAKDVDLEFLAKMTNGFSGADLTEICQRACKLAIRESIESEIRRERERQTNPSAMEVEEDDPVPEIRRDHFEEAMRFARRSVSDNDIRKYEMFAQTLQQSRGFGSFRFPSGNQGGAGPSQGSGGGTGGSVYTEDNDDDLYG

Insulin-degrading enzyme = target: T2, Insulin-degrading enzyme (Homo sapiens, UniProt P14735); assay: Dose Response: Fluorescence polarization-based cell-based high throughput dose response assay for inhibitors of insulin-degrading enzyme (IDE). [Related pubchem assays: 434962 (Primary screen (IDE inhibitors in singlicate)), 449730 (Counterscreen (Cytotoxicity in triplicate)), 435028 (Confirmation (IDE inhibitors in triplicate)), 434984 (Summary …; assay type: functional
T2 sequence (P14735 whole entry): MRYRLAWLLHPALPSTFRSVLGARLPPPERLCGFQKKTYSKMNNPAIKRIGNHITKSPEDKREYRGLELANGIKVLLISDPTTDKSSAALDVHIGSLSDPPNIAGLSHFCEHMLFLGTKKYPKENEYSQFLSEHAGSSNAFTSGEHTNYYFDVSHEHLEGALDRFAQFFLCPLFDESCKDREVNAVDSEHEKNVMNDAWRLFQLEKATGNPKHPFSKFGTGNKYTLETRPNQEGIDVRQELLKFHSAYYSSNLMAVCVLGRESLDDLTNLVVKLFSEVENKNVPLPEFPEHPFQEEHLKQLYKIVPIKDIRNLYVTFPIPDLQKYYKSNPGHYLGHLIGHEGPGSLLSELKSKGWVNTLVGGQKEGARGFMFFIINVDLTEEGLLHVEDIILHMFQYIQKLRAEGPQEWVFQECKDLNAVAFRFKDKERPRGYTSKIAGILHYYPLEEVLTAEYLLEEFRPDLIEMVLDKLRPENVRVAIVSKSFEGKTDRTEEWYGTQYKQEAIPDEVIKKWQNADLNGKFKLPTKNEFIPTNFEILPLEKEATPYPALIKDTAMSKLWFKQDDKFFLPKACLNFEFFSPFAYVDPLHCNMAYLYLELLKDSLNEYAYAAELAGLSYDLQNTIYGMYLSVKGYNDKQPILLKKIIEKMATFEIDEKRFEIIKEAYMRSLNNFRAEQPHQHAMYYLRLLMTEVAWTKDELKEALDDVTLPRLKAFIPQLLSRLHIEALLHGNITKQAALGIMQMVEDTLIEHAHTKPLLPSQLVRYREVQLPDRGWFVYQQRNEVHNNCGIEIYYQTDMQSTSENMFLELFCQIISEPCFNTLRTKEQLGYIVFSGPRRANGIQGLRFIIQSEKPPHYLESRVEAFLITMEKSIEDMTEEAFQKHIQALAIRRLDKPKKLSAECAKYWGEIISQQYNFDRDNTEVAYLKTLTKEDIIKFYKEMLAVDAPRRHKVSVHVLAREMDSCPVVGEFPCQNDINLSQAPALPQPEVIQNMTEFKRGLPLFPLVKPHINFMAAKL

[21] = target: Transitional endoplasmic reticulum ATPase (Homo sapiens, UniProt P55072); assay: p97 ATPase inhibitors, dose response, biochemical (AID 1534)
Sequence of Transitional endoplasmic reticulum ATPase (Homo sapiens, UniProt P55072) (P55072 whole entry): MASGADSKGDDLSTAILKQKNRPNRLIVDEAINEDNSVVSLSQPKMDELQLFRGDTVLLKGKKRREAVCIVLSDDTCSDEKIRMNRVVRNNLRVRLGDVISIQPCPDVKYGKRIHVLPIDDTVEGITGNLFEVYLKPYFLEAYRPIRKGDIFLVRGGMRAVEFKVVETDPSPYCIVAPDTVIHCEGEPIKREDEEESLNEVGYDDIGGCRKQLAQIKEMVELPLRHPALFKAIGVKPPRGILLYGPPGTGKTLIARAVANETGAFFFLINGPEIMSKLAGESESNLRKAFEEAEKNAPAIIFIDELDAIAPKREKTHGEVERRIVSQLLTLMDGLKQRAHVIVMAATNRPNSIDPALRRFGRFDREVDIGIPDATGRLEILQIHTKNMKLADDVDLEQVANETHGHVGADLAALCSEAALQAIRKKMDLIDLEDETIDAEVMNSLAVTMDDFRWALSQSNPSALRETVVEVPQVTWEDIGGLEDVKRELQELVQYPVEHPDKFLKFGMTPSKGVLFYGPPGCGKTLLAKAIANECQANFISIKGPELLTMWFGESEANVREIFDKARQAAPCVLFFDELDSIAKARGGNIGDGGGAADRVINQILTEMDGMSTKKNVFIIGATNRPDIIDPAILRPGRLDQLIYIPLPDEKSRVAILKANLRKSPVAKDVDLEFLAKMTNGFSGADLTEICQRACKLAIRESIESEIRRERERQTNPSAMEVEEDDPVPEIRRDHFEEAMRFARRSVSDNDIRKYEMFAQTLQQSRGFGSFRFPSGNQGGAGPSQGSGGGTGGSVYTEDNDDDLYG

Kallikrein-7 = Kallikrein-7 (Homo sapiens, UniProt P49862); assay: Fluorescence Intensity-based biochemical primary high throughput dose response assay to identify activators of kallikrein-7 (K7) zymogen.
Sequence of Kallikrein-7 (P49862 whole entry): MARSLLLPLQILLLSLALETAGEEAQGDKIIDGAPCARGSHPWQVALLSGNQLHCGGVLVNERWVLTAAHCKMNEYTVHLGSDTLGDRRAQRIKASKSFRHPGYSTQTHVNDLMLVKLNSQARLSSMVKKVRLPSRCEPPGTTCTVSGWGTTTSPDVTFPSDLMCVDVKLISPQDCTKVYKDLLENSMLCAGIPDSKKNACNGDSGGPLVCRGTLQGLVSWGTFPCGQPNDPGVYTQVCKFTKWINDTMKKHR

[22] = target: T3, Histone-lysine N-methyltransferase NSD2 (Homo sapiens, UniProt O96028); assay type: biochemical
T3 sequence (O96028 whole entry): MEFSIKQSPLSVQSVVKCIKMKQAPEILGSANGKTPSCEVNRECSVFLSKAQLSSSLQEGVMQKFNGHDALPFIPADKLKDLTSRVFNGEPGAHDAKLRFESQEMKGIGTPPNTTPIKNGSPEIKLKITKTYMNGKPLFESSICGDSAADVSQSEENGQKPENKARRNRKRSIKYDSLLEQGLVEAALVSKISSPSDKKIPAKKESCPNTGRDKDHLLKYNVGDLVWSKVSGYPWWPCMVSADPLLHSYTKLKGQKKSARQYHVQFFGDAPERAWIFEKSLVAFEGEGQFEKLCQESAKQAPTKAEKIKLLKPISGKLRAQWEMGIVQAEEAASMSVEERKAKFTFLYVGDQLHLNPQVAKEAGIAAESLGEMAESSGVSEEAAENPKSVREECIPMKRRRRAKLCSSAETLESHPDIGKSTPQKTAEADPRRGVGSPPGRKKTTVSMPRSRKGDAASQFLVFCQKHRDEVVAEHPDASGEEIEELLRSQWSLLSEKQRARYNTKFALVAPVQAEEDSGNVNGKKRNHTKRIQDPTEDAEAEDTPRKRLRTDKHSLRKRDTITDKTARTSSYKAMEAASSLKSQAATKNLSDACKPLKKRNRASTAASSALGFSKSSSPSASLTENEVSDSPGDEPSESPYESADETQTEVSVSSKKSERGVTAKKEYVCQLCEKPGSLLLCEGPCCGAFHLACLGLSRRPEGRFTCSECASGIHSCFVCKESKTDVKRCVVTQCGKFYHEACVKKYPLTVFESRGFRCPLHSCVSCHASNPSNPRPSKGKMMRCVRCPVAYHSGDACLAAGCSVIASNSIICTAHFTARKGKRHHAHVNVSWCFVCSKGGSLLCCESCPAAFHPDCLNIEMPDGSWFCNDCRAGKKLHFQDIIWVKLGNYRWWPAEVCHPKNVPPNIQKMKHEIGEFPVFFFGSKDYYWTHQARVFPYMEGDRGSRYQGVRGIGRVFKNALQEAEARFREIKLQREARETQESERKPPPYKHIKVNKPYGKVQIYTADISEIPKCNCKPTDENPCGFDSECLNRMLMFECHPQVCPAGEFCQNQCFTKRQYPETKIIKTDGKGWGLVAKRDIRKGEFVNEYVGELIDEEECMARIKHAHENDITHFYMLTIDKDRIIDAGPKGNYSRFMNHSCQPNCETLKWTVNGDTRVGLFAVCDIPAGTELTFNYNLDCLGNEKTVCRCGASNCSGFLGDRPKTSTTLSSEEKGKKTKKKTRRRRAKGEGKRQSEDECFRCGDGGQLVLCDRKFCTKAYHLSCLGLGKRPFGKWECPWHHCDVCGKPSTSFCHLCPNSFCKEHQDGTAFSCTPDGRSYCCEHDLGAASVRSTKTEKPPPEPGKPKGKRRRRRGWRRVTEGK

Sequence of Paired box protein Pax-8 (Q06710 whole entry): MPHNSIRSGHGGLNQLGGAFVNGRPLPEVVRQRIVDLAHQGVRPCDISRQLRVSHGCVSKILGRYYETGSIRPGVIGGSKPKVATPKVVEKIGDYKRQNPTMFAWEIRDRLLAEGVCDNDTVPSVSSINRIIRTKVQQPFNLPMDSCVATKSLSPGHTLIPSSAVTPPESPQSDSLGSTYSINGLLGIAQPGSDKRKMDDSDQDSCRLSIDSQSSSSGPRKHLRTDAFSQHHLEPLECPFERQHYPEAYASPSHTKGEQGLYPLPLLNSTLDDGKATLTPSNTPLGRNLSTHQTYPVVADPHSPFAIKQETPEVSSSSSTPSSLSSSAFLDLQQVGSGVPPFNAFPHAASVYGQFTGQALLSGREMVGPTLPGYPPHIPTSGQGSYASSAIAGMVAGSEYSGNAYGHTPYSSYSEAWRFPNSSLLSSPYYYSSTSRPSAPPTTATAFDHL

In the case of `C[C@H](CO)N1C[C@H](C)[C@@H](CN(C)Cc2ccc(C(F)(F)F)cc2)Oc2ccc(NS(=O)(=O)c3ccc(Cl)cc3)cc2CC1=O`, the AC50 (Paired box protein Pax-8) is reported as 11.2 µM (active), the AC50 [1] is reported as 28.6 µM (active) and the AC50 [2] is reported as 41.8 µM (active). The AC50 [3] was 29.8 µM (active), the AC50 [4] was 12.9 µM (active) and the AC50 [5] was 37.7 µM (active). For the same compound, the AC50 [6] was 39 µM (active), the AC50 [7] was > 70 µM (inactive) and the AC50 [8] was 21.9 µM (active).
For `CO[C@H]1CN(C)C(=O)c2ccc(NC(=O)C3CC3)cc2OC[C@@H](C)N(C(=O)c2ccccc2F)C[C@H]1C`, the AC50 [9] was > 30 µM (inactive).
For `C[C@@H]1CN([C@@H](C)CO)C(=O)c2cccc(NC(=O)c3ccncc3)c2O[C@H]1CN(C)Cc1cccc(Cl)c1`, the AC50 [10] was 0.0169 µM (active), the AC50 [11] was 0.0706 µM (active) and the IC50 [12] was 0.0074 µM (active).
In the case of `CO[C@@H]1CN(C)C(=O)c2ccc(NC(=O)Nc3cccc(F)c3)cc2OC[C@@H](C)N(C(=O)Nc2cccc(F)c2)C[C@H]1C`, the AC50 [13] is reported as 3.17 µM (active), the AC50 [14] is reported as 61.4 µM (active) and the AC50 [15] is reported as 61 µM (active). The AC50 [16] was 8.94 µM (active), the AC50 [17] was 3.07 µM (active) and the AC50 [18] was > 42 µM (inactive).
With `N=C1/C(=C\c2coc3ccccc3c2=O)C(=O)N=C2SC(c3ccncc3)=NN12` the IC50 (Aminopeptidase N) was 44 µM (active), the IC50 [19] was 30.1 µM (not active) and the IC50 [20] was 9.26 µM (active). For the same compound, the IC50 (Insulin-degrading enzyme) was > 18.6 µM (not active), the IC50 [21] was 11.1 µM (not active) and the EC50 (Kallikrein-7) was > 7.72 µM (active). The AC50 [22] was 18.8 µM (active).

From ChEMBL document CHEMBL1201862, “PubChem BioAssay data set” (2004)
